For data set [1], the system named is Escherichia coli expressing NDM-1 (CLB30005, CLB30016). In kind it is cell-based. The following applies: with imipenem 1 μg/ml, 95% inhibition of bacterial growth. The essentials: (§1)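 Growth read by absorbance after 22–24 h at 35 °C in CAMHB, with test compound alone or combined with 1 μg/ml imipenem. Inocula came from overnight 35 °C blood-agar colonies, set to a defined OD600 and diluted 1:100. Value is the inhibitor concentration giving synergy.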

The test system of data set [2] is Serratia marcescens expressing IMP-1 (CL5741). It is filed as cell-based. Conditions: with imipenem 1 μg/ml, 95% inhibition of bacterial growth. The essentials: as §1
The subject of data set [3] is Pseudomonas aeruginosa PAO1 MB9798 (efflux+, IMP-1). Conditions: ratio MITC95 PA 9798/MITC95 PA 9799; imipenem at 2 μg/mL. The essentials: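 Isogenic PAO1 pair (efflux+ MB9798, efflux− MB9799, both IMP-1) tested by microbroth MIC with fixed imipenem and/or ceftazidime, usually at CLSI breakpoint, plus fixed class A/C inhibitor against AmpC. MBL inhibitor titrated; concentration restoring susceptibility recorded and fold difference between strains taken as efflux extent.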

Counter-ions that a name gives are not always drawn. Like-named read-outs stand apart in the source and are kept apart here.

For `NCCCNC(=O)c1cccc(-c2ccc(S(=O)(=O)NCCN)c(S(N)(=O)=O)c2-c2nn[nH]n2)c1` [Example 341, 4′-(N-(2-aminoethyl)sulfamoyl)-N-(3-aminopropyl)-3′-sulfamoyl-2′-(2H-tetrazol-5-yl)-[1,1′-biphenyl]-3-carboxamide], the “Escherichia coli (NDM-1) MITC95” value in data set [1] came to 0.7813 µM. In addition, in data set [2], the “Serratia marcescens (IMP-1) MITC95” value is 1.563 µM. Further, the Efflux ratio in data set [3] is on record as 2.00.

Consider `CNc1nc2c(-c3ccc(S(=O)(=O)N[C@@H]4CCNC4)c(S(N)(=O)=O)c3-c3nn[nH]n3)cccc2[nH]1` [Example 280, (R)-4-(2-(methylamino)-1H-benzo[d]imidazol-4-yl)-N1-(pyrrolidin-3-yl)-3-(2H-tetrazol-5-yl)benzene-1,2-disulfonamide], for which, in data set [1], the “Escherichia coli (NDM-1) MITC95” value stood at 0.7813 µM. Moreover, the “Serratia marcescens (IMP-1) MITC95” value in data set [2] amounted to 0.7813 µM. The Efflux ratio in data set [3] stood at 0.50.

With `NC(=O)c1nc2c(-c3ccc(S(=O)(=O)N[C@@H]4CCNC4)c(S(N)(=O)=O)c3-c3nn[nH]n3)cccc2[nH]1` [Example 271, (R)-4-(4-(N-(pyrrolidin-3-yl)sulfamoyl)-3-sulfamoyl-2-(2H-tetrazol-5-yl)phenyl)-1H-benzo[d]imidazole-2-carboxamide], the “Escherichia coli (NDM-1) MITC95” value in data set [1] turned out to be 1.563 µM. The “Serratia marcescens (IMP-1) MITC95” value in data set [2] was determined as 0.7813 µM. Also, the Efflux ratio in data set [3] was found to be 0.50.

Regarding `Nc1ncc(-c2ccc(S(=O)(=O)N[C@H]3CNC[C@H]3N)c(S(N)(=O)=O)c2-c2nn[nH]n2)s1` [Example 325, N1-((3S,4R)-4-aminopyrrolidin-3-yl)-4-(2-aminothiazol-5-yl)-3-(2H-tetrazol-5-yl)benzene-1,2-disulfonamide], in data set [1], the “Escherichia coli (NDM-1) MITC95” value came to 0.7813 µM. Also, the “Serratia marcescens (IMP-1) MITC95” value in data set [2] was 1.563 µM. The Efflux ratio in data set [3] is 2.00.

With `NS(=O)(=O)c1c(S(=O)(=O)N[C@@H]2CCNC2)ccc(-c2cnc3cc[nH]c3c2)c1-c1nn[nH]n1` [Example 282, (R)-N1-(pyrrolidin-3-yl)-4-(1H-pyrrolo[3,2-b]pyridin-6-yl)-3-(2H-tetrazol-5-yl)benzene-1,2-disulfonamide], the “Escherichia coli (NDM-1) MITC95” value in data set [1] was 0.7813 µM. For the same compound, the “Serratia marcescens (IMP-1) MITC95” value in data set [2] was determined as 0.7813 µM. In addition, the Efflux ratio in data set [3] is 1.00.

Turning to `NCCN1CC[C@@H](NS(=O)(=O)c2ccc(-c3ccc(N)nc3)c(-c3nn[nH]n3)c2S(N)(=O)=O)C1` [Example 500, (R)—N1-(1-(2-aminoethyl)pyrrolidin-3-yl)-4-(6-aminopyridin-3-yl)-3-(2H-tetrazol-5-yl)benzene-1,2-disulfonamide], the “Escherichia coli (NDM-1) MITC95” value in data set [1] (CLB30016) is 1.563 µM. The “Serratia marcescens (IMP-1) MITC95” value in data set [2] (CL5741) came to 1.563 µM.

Turning to `Cn1c(N)nc2c(-c3ccc(S(=O)(=O)NC[C@H](O)CN)c(S(N)(=O)=O)c3-c3nn[nH]n3)cccc21` [Example 302, (R)-4-(2-amino-1-methyl-1H-benzo[d]imidazol-4-yl)-N1-(3-amino-2-hydroxypropyl)-3-(2H-tetrazol-5-yl)benzene-1,2-disulfonamide], the “Escherichia coli (NDM-1) MITC95” value in data set [1] was 0.7813 µM. Besides, the “Serratia marcescens (IMP-1) MITC95” value in data set [2] came to 0.7813 µM. Further, the Efflux ratio in data set [3] is listed as 1.00.

Consider `NCc1nc2c(-c3ccc(S(=O)(=O)NC[C@@H]4CNCCN4)c(S(N)(=O)=O)c3-c3nn[nH]n3)cccc2[nH]1` [Example 311, (S)-4-(2-(aminomethyl)-1H-benzo[d]imidazol-4-yl)-N-(piperazin-2-ylmethyl)-3-(2H-tetrazol-5-yl)benzene-1,2-disulfonamide], for which the “Escherichia coli (NDM-1) MITC95” value in data set [1] is 1.563 µM. In addition, the “Serratia marcescens (IMP-1) MITC95” value in data set [2] stood at 1.563 µM.

`CNc1nc2c(-c3ccc(S(=O)(=O)NCCN)c(S(N)(=O)=O)c3-c3nn[nH]n3)cccc2[nH]1` [Example 467, N1-(2-aminoethyl)-4-(2-(methylamino)-1H-benzo[d]imidazol-4-yl)-3-(2H-tetrazol-5-yl)benzene-1,2-disulfonamide]: the “Escherichia coli (NDM-1) MITC95” value in data set [1] was 0.7813 µM. The “Serratia marcescens (IMP-1) MITC95” value in data set [2] came out at 0.7813 µM.

For the compound `NS(=O)(=O)c1c(S(=O)(=O)N[C@@H]2CCNC2)ccc(-c2cccc(Nc3nc(CO)cs3)c2)c1-c1nn[nH]n1` [Example 470, (R)-3′-((4-(hydroxymethyl)thiazol-2-yl)amino)-N4-(pyrrolidin-3-yl)-2-(2H-tetrazol-5-yl)-[1,1′-biphenyl]-3,4-disulfonamide], the “Escherichia coli (NDM-1) MITC95” value in data set [1] came out at 0.7813 µM. For the same compound, in data set [2], the “Serratia marcescens (IMP-1) MITC95” value was 1.563 µM.

`NS(=O)(=O)c1c(S(=O)(=O)N[C@@H]2CNC[C@@H]2O)ccc(-c2cccc3[nH]nnc23)c1-c1nn[nH]n1` [Example 412, 4-(1H-benzo[d][1,2,3]triazol-4-yl)-N^1-((3R,4S)-4-hydroxypyrrolidin-3-yl)-3-(2H-tetrazol-5-yl)benzene-1,2-disulfonamide]: the “Escherichia coli (NDM-1) MITC95” value in data set [1] was determined as 3.125 µM. In addition, in data set [2], the “Serratia marcescens (IMP-1) MITC95” value is 3.125 µM.

Regarding `C[N+](C)(C)CCCNS(=O)(=O)c1ccc(-c2cccc3sc(N)nc23)c(-c2nnn[nH]2)c1S(N)(=O)=O` [Example 392, 3-({[4-(2-amino-1,3-benzothiazol-4-yl)-2-sulfamoyl-3-(1H-tetrazol-5-yl)phenyl]sulfonyl}amino)-N,N,N-trimethylpropan-1-amimum trifluoroacetate], the “Escherichia coli (NDM-1) MITC95” value in data set [1] turned out to be 3.125 µM. The “Serratia marcescens (IMP-1) MITC95” value in data set [2] was determined as 3.125 µM.

For `Nc1ccc(-c2ccc(S(=O)(=O)NC3CNC3)c(S(N)(=O)=O)c2-c2nn[nH]n2)cn1` [Example 493, 4-(6-aminopyridin-3-yl)-N1-(azetidin-3-yl)-3-(2H-tetrazol-5-yl)benzene-1,2-disulfonamide], the “Escherichia coli (NDM-1) MITC95” value in data set [1] was 0.3906 µM. The “Serratia marcescens (IMP-1) MITC95” value in data set [2] is 0.3906 µM.

`NCc1sc(N)nc1-c1cccc(-c2ccc(S(=O)(=O)N[C@@H]3CCNC3)c(S(N)(=O)=O)c2-c2nnn[nH]2)c1` [Example 432, (R)-3′-(2-amino-5-(aminomethyl)thiazol-4-yl)-N^4-(pyrrolidin-3-yl)-2-(1H-tetrazol-5-yl)-[1,1′-biphenyl]-3,4-disulfonamide]: the “Escherichia coli (NDM-1) MITC95” value in data set [1] stood at 0.7813 µM. Also, the “Serratia marcescens (IMP-1) MITC95” value in data set [2] stood at 0.7813 µM.

For `NCCNS(=O)(=O)c1ccc(-c2cccc(NC(=O)[C@H](N)CO)c2)c(-c2nn[nH]n2)c1S(N)(=O)=O` [Example 454, (R)-2-amino-N-(4′-(N-(2-aminoethyl)sulfamoyl)-3′-sulfamoyl-2′-(2H-tetrazol-5-yl)-[1,1′-biphenyl]-3-yl)-3-hydroxypropanamide], the “Escherichia coli (NDM-1) MITC95” value in data set [1] was found to be 1.563 µM. In addition, the “Serratia marcescens (IMP-1) MITC95” value in data set [2] came out at 3.125 µM.

With `NCC(CN)NS(=O)(=O)c1ccc(-c2cccc3[nH]nnc23)c(-c2nn[nH]n2)c1S(N)(=O)=O` [Example 403, 4-(1H-benzo [d][1,2,3]triazol-4-yl)-N^1-(1,3-diaminopropan-2-yl)-3-(2H-tetrazol-5-yl)benzene-1,2-disulfonamide], in data set [1], the “Escherichia coli (NDM-1) MITC95” value worked out at 1.563 µM. For the same compound, the “Serratia marcescens (IMP-1) MITC95” value in data set [2] was 1.563 µM.

For the compound `NCc1nc2cc(-c3ccc(S(=O)(=O)NC[C@H](O)CN)c(S(N)(=O)=O)c3-c3nn[nH]n3)ccc2s1` [Example 463, (R)—N1-(3-amino-2-hydroxypropyl)-4-(2-(aminomethyl)benzo[d]thiazol-5-yl)-3-(2H-tetrazol-5-yl)benzene-1,2-disulfonamide], in data set [1], the “Escherichia coli (NDM-1) MITC95” value worked out at 0.7813 µM. In data set [2], the “Serratia marcescens (IMP-1) MITC95” value was found to be 0.7813 µM.

Regarding `NCCNS(=O)(=O)c1ccc(-c2cccc3ncccc23)c(-c2nn[nH]n2)c1S(N)(=O)=O` [Example 360, N1-(2-aminoethyl)-4-(quinolin-5-yl)-3-(2H-tetrazol-5-yl)benzene-1,2-disulfonamide], the “Escherichia coli (NDM-1) MITC95” value in data set [1] is 1.563 µM. The “Serratia marcescens (IMP-1) MITC95” value in data set [2] came out at 1.563 µM.

In the case of `Nc1nc2c(-c3ccc(S(=O)(=O)NCC4(O)CNC4)c(S(N)(=O)=O)c3-c3nn[nH]n3)cccc2s1` [Example 387, 4-(2-amino-1,3-benzothiazol-4-yl)-N^1-[(3-hydroxyazetidin-3-yl)methyl]-3-(2H-tetrazol-5-yl)benzene-1,2-disulfonamide], the “Escherichia coli (NDM-1) MITC95” value in data set [1] was determined as 1.563 µM. Further, the “Serratia marcescens (IMP-1) MITC95” value in data set [2] turned out to be 1.563 µM.

Turning to `C[N+]1(CCN)CC[C@H](NS(=O)(=O)c2ccc(-c3cccc4[nH]c(N)nc34)c(-c3nn[nH]n3)c2S(N)(=O)=O)C1` (stereo partly drawn) [Example 249, (3S)-3-{[4-(2-amino-1H-1,3-benzodiazol-4-yl)-2-sulfamoyl-3-(2H-1,2,3,4-tetrazol-5-yl)benzene]sulfonamido}-1-(2-aminoethyl)-1-methylpyrrolidin-1-ium methaneperoxoate], the “Escherichia coli (NDM-1) MITC95” value in data set [1] stood at 0.3906 µM. Besides, the “Serratia marcescens (IMP-1) MITC95” value in data set [2] is 1.563 µM.

Consider `C[C@H](N)Cc1nc2c(-c3ccc(S(N)(=O)=O)c(S(N)(=O)=O)c3-c3nn[nH]n3)cccc2[nH]1` [Example 442, (S)-4-(2-(2-aminopropyl)-1H-benzo[d]imidazol-4-yl)-3-(2H-tetrazol-5-yl)benzene-1,2-disulfonamide], for which the “Escherichia coli (NDM-1) MITC95” value in data set [1] amounted to 1.563 µM. For the same compound, the “Serratia marcescens (IMP-1) MITC95” value in data set [2] was determined as 1.563 µM.
